From ChEMBL document CHEMBL3108690, “Discovery and characterization of a novel dihydroisoxazole class of α-amino-3-hydroxy-5-methyl-4-isoxazolepropionic acid (AMPA) receptor potentiators” (J Med Chem, 2013)
pEC50, pKi: −log10 of the molar value. The source made the active and inactive calls. The calls are words filed in the database; no cut-off is given here.

Tests used:
[1] = Positive allosteric modulation of AMPAR in mouse embryonic stem cell-derived neurons assessed as intracellular Ca2+ flux by FLIPR assay; assay type: cell-based
[2] = Apparent intrinsic clearance in human liver microsomes; assay type: ADME; conditions: read-out: CLH(app)
MDR1 = assay: Efflux ratio of apparent permeability in MDCK cells expressing MDR1; assay type: ADME, cell-based, Canis lupus familiaris; conditions: dog
[3] = Apparent permeability in MDCK cells; assay type: ADME, cell-based, Canis lupus familiaris; conditions: dog
human MDR1 = assay: Efflux ratio of apparent permeability from basolateral to apical side over apical to basolateral side in MDCK cells transfected with human MDR1 at 2 uM; assay type: ADME, cell-based, Canis lupus familiaris; conditions: dog
Mus musculus [4] = species: Mus musculus; assay: Positive allosteric modulation of AMPAR in mouse embryonic stem cell-derived neurons assessed as intracellular Ca2+ flux by FLIPR assay in presence of cyclothiazide relative to AMPA; assay type: cell-based
[5] = Apparent permeability from apical to basolateral side in MDCK cells at 2 uM by LC-MS/MS analysis; assay type: ADME, cell-based, Canis lupus familiaris; conditions: dog
[6] = Displacement of [3H]PF-04725379 from Sprague-Dawley rat AMPAR after 2 hrs by liquid scintillation counting analysis
[7] = Ratio of drug level from brain to plasma in CD-1 mouse at 0.1 mg/kg, sc qd measured after 0.5 hrs; assay type: ADME, organism-based; design: dose 0.1 mg/kg, route subcutaneous; conditions: read-out: BPR
Rattus norvegicus [8] = assay: Reversal of MK-801-mediated decrease in paired-pulse facilitation in Sprague-Dawley rat at 0.003 mg/kg, iv administered as bolus dose measured after 5 mins; assay type: functional, organism-based; design: dose 0.003 mg/kg
Mus musculus [9] = assay: Induction of cGMP level in sc dosed CD-1 mouse cerebellum administered as qd measured after 0.5 hrs by EIA; assay type: functional, organism-based
Rattus norvegicus [10] = assay: Toxicity in Sprague-Dawley rat assessed as induction of convulsion at 0.32 to 0.56 mg/kg, sc measured after 13 to 23 mins; assay type: organism-based; design: route subcutaneous; conditions: in vivo
Rattus norvegicus [11] = assay: Reversal of MK-801-mediated increase in low delta component of local field potential in Sprague-Dawley rat at 0.001 mg/kg, iv administered as bolus dose measured after 5 mins; assay type: functional, organism-based; design: dose 0.001 mg/kg
[12] = Terminal half life in Sprague-Dawley rat brain at 0.2 mg/kg, sc qd; assay type: ADME, organism-based; design: dose 0.2 mg/kg, route subcutaneous; conditions: read-out: beta t1/2 (converted)
[13] = Terminal half life in Sprague-Dawley rat plasma at 0.2 mg/kg, sc qd; assay type: ADME, organism-based; design: dose 0.2 mg/kg, route subcutaneous; conditions: read-out: beta t1/2 (converted)
Rattus norvegicus [14] = assay: Toxicity in Sprague-Dawley rat assessed as induction of tremor at 0.32 to 0.56 mg/kg, sc measured at 10 mins; assay type: organism-based; design: dose 0.32-0.56 mg/kg, route subcutaneous; conditions: in vivo
Rattus norvegicus [15] = assay: Reversal of MK-801-mediated decrease in paired-pulse facilitation in Sprague-Dawley rat at 0.001 mg/kg, iv administered as bolus dose measured after 5 mins; assay type: functional, organism-based; design: dose 0.001 mg/kg
[16] = (§1) Ratio of unbound concentration in brain required to cause induction of cGMP level in CD-1 mouse cerebellum at 0.32 mg/kg, sc over unbound concentration in brain required to cause reversal of MK-801-mediated increase in low delta component of local field potential in Sprague-Dawley rat at 0.003 mg/kg, iv administered as bolus dose; assay type: functional
[17] = Fraction unbound in Sprague-Dawley rat brain at 0.01 mg/kg, iv; assay type: ADME, organism-based; design: dose 0.01 mg/kg, route intravenous
Rattus norvegicus [18] = assay: Reversal of MK-801-mediated increase in low delta component of local field potential in Sprague-Dawley rat at 0.003 mg/kg, iv administered as bolus dose measured after 5 mins; assay type: functional, organism-based; design: dose 0.003 mg/kg
[19] = Ratio of free drug level from brain to plasma in Sprague-Dawley rat at 0.2 mg/kg, sc qd; assay type: ADME, organism-based; design: dose 0.2 mg/kg, route subcutaneous; conditions: read-out: K(p,uu,brain)
[20] = Fraction unbound in Sprague-Dawley rat plasma at 0.01 mg/kg, iv; assay type: ADME, organism-based; design: dose 0.01 mg/kg, route intravenous
[21] = as §1, with “Therapeutic index, ratio” for “Ratio”, “convulsion” for “induction of cGMP level”, “Sprague-Dawley rat” for “CD-1 mouse cerebellum”, “0.32 to 0.56” for “0.32”, “to” for “over”; assay type: organism-based; conditions: read-out: TI
Mus musculus [22] = assay: Toxicity in CD-1 mouse assessed as induction of convulsion at 0.32 to 0.56 mg/kg, sc measured after 5 to 11 mins; assay type: organism-based; design: route subcutaneous; conditions: in vivo
Mus musculus [23] = assay: Ratio of unbound concentration in brain required to cause convulsion in CD-1 mouse at 0.32 to 0.56 mg/kg, sc to unbound concentration in brain required to cause induction of cGMP level in CD-1 mouse cerebellum at 0.32 mg/kg, sc
[24] = Ratio of total drug level from brain to plasma in Sprague-Dawley rat at 0.2 mg/kg, sc qd; assay type: ADME, organism-based; design: dose 0.2 mg/kg, route subcutaneous; conditions: read-out: BPR

Structure (SMILES)	efflux ratio at 2 µM (human MDR1)	Papp A→B at 2 µM [5] [×10⁻⁶ cm/s]	pEC50 [1]	Emax (Mus musculus [4]) [%]	also measured
CC(=O)NC[C@@H]1CC(c2ccc(N3CCCC3)c(F)c2)=NO1			5.36		microsomal CLint [2]: 26 µL/min/mg; efflux ratio (MDR1): 0.98; Papp [3]: 35 ×10⁻⁶ cm/s
CC(C)S(=O)(=O)NCC1CC(c2ccc(-c3ccc(C#N)cc3)c(F)c2)=NO1 (racemic)	1.4	16.7	5.58	124	
CC(C)S(=O)(=O)NCC1CC(c2ccc(-c3cccc(C#N)c3)c(F)c2)=NO1 (racemic)	1.17	15.1	5.73	156	
CC(C)S(=O)(=O)NCC1CC(c2ccc(N3CCCC3)c(F)c2)=NO1 (racemic)			6.81	128	
CC(C)S(=O)(=O)NC[C@@H]1CC(c2ccc(-c3ccccc3C#N)c(F)c2)=NO1	1.18	29.1	> 8.00		pKi [6]: 7.62
CC(C)S(=O)(=O)NCC1CC(c2ccc(-c3ccccc3C#N)c(F)c2)=NO1 (racemic)	1.16	12.9	7.06	152	
CC(C)S(=O)(=O)NCC1CC(c2cccc(F)c2)=NO1 (racemic)			< 4.50		
CC(C)S(=O)(=O)NCC1CC(c2ccc(-c3ccccc3)c(F)c2)=NO1 (racemic)			5.49	138	

Further lines, with some results ahead:

efflux ratio at 2 µM (human MDR1)	Papp A→B at 2 µM [5] [×10⁻⁶ cm/s]	Structure (SMILES)	pEC50 [1]	Emax (Mus musculus [4]) [%]	also measured
0.89		CC(C)S(=O)(=O)NCC1CC(c2ccc(N3CCCC3)cc2)=NO1 (racemic)	6.60	169	
12.1	3.93	CC(=O)N[C@H]1CCN(c2ccc(C3=NO[C@H](CNS(=O)(=O)C(C)C)C3)cc2F)C1	> 8.00	143	Kp at 0.5 h [7]: 0.03
1.6		CC(C)S(=O)(=O)NC[C@H]1CC(c2ccc(N3CCCC3)c(F)c2)=NO1	5.33	114	pKi [6]: 5.24
1.45	18.6	CC(C)S(=O)(=O)NC[C@@H]1CC(c2ccc(N3CCCC3)c(F)c2)=NO1	6.91	147	Activity (Rattus norvegicus [8]): Active; Activity (Mus musculus [9]): Dose-dependent effect; Activity (Rattus norvegicus [10]): Toxic; Activity (Rattus norvegicus [11]): inactive; half-life [12]: 24 min; pKi [6]: > 7.62; half-life [13]: 24 min; Activity (Rattus norvegicus [14]): Toxic; Activity (Rattus norvegicus [15]): inactive; Ratio [16]: 100; fraction unbound [17]: 0.014; Activity (Rattus norvegicus [18]): Active; Kp uu [19]: 0.54; fraction unbound [20]: 0.027; selectivity ratio [21]: 500; Activity (Mus musculus [22]): Toxic; Ratio (Mus musculus [23]): 5; Kp [24]: 1.04
0.84	22	CC(C)S(=O)(=O)NCC1CC(c2ccc(-c3cccnc3)c(F)c2)=NO1 (racemic)	6.53	157	
